The subject of experiment [1] is senescent epidermal cells. Nature of the experiment: Elimination of senescent cells in the skin epidermis of p14ARF-expressing mice (SA-β-Gal, p14ARF, cleaved caspase-3 stains). The conditions noted are these: 75 mg/kg intraperitoneally. Format: in vivo, K5-rtTA/tet-p14 mice. As for the experimental part:
(§1) Mouse experiments: K5-rtTA/tet-p14, described in (Toakrsly-Amiel et al.) were held on a mixed C57B1/129sv background. Mice received doxycycline (2 mg/ml) in the drinking water at 3 weeks of age for activation of the p14ARF transgene. Sibling tet-p14 single transgene control mice received doxycycline for the same period. After four weeks of transgene activation, ABT-737 (75 mg/kg in 30% propylene glycol, 5% Tween 80, 3.3% dextrose in water pH 4-5) or vehicle was injected into p14ARF-expressing mice intraperitoneally for 2 or 4 consecutive days. Mice were then shaved, sacrificed and back skins were paraffin embedded for immunohistology or frozen in OCT solution for cryosectioning and SA-β-gal stains.
Immunohistology: Immunohistology was performed according to standard procedures on 5 μm paraffin sections, using Peroxidase Substrate kits (Vector) or fluorescently labeled secondary antibodies (Jackson). Antibodies used: p14ARF (Abcam), CC3 (Cell Signaling), Ki67 (Labvision) and K15 (Santa Cruz). […] Positive cells were scored from >10 microscopic fields in each sample either by direct microscopic observation (SA-β-gal, p14) or on collected images (all other stains).
The present inventors set out to test whether the survival signals provided by Bcl-2 family members are necessary for the survival and retention of senescent cells in tissues. […] Concomitantly, the percentage of epidermal cells in which the transgenic p14^ARF protein could be detected was reduced (FIGS. 1D-E), indicating preferred elimination of transgene-expressing cells. Increased levels of apoptosis were detected in the epidermis after 2 days of ABT-737 treatment (FIGS. 1F-G), consistent with increased apoptosis as the mechanism of senescent cell elimination. […]

The subject of experiment [2] is hair-follicle stem cells in the bulge. Briefly: Hair-follicle bulge stem cell proliferation and number in p14ARF-expressing mice (Ki67/K15 stain, CD34/CD49f FACS). Format: in vivo, K5-rtTA/tet-p14 mice. As to conditions: vs vehicle. As for the experimental part:
as §1
Immunohistology: Immunohistology was performed according to standard procedures on 5 μm paraffin sections, using Peroxidase Substrate kits (Vector) or fluorescently labeled secondary antibodies (Jackson). Antibodies used: p14ARF (Abcam), CC3 (Cell Signaling), Ki67 (Labvision) and K15 (Santa Cruz). For Senescence-associated β-Galactosidase (SA-β-gal) stains, 10-12 μm cryosections of OCT-embedded mouse skins were fixed in 0.5% glutaraldehyde for 15 minutes, stained over night at 37° C. with 40 mM phosphate buffer pH=6 with 5 mM K4Fe(CN)6, 5 mM K3Fe(CN)6, 150 mM NaCl, 2 mM MgCl2 and 1 mg/ml X-gal, washed in PBS, fixed in 95% ethanol for 15 minutes, counterstained with nuclear fast red, dehydrated and mounted. Bright field images were collected using an Olympus CX41 and DS-Fi1 camera and processed using NIS Elements software (Nikon). Fluorescent images were taken using an Olympus FV1000 confocal microscope. Positive cells were scored from >10 microscopic fields in each sample either by direct microscopic observation (SA-β-gal, p14) or on collected images (all other stains).
Upon p14^ARF activation in mice at 3 weeks of age nearly all hair follicles are arrested in the resting (telogen) state, and only rare stem cells in the bulge express the proliferation marker Ki67^36 (FIGS. 5H-I). […] This effect was also evident three days after treatment was stopped (FIGS. 2A-B). […]

As for `CN(C)CC[C@H](CSc1ccccc1)Nc1ccc(S(=O)(=O)NC(=O)c2ccc(N3CCN(Cc4ccccc4-c4ccc(Cl)cc4)CC3)cc2)cc1[N+](=O)[O-]` [ABT-737], in experiment [1] (4 consecutive days, after 4 weeks p14ARF activation, relative to vehicle-treated mice), the “number of senescent cells in the epidermis, determined by SA-β-Gal staining” value is given as “dramatically reduced”. Besides, in experiment [1] (2 day treatment, vs vehicle), the “percentage of epidermal cells in which the transgenic p14ARF protein could be detected” value is “reduced”. Besides, the “levels of apoptosis in the epidermis (cleaved caspase-3)” value in experiment [1] (after 2 days of treatment, vs vehicle) was “Increased”. In addition, the “number of CD34+/CD49f high bulge stem cells” value in experiment [2] (FACS of epidermal cells after 2 days of treatment) is reported as “increased”. In addition, in experiment [2] (treated 2 days, three days after treatment was stopped), the “increase in proliferating (Ki67+) hair-follicle stem cells in the bulge after end of treatment” value is listed as “also evident”. In addition, in experiment [2] (treatment after 2-4 weeks of p14ARF induction, 75 mg/kg intraperitoneally), the “numbers of proliferating (Ki67+) hair-follicle stem cells in the bulge” value is “increase”.

The values above are taken from patent US20180345047A1, “METHOD OF PROMOTING HAIR GROWTH” (Yeda Research and Development Co. Ltd., priority 2015, published 2018).
